Values after ≈ are worked out from the molar mass of the structure shown.
Assays:
[1] = Inhibition of pigeon liver dihydrofolate reductase; set-up: species or system Columba livia; settings: read-out: I50
[2] = tested on: KB; test: Cytotoxicity against human KB cells; format: functional; settings: read-out: ED50 (the source's name)
[3] = tested on: L1210; test: Antitumor activity against mouse L1210 cells […] in mouse assessed as increase in life span at 200 mg/kg, ip qd administered on day 2 and day 6 relative to control; format: functional; settings: route intraperitoneal
[4] = Dissociation constant, pKa of the compound; format: physicochemical
[5] = tested on: Columba livia; test: Potency index, ratio of I50 for MTX to I50 for compound against pigeon liver dihydrofolate reductase
[6] = tested on: KB; test: Potency index, ratio of ED50 for MTX to ED50 for compound against human KB cells; format: functional
[7] = tested on: L1210; test: Antitumor activity against mouse L1210 cells […] in mouse assessed as increase in life span at 500 mg/kg, ip qd from day 1 to day 9 relative to control; format: functional; settings: route intraperitoneal
[8] = Cytotoxicity against human Hep2 cells; format: functional; settings: HEp-2, read-out: ED50 (the source's name)
[9] = tested on: L1210; test: Antitumor activity against mouse L1210 cells […] in mouse assessed as increase in life span at 100 mg/kg, ip qd from day 1 to day 9 relative to control; format: functional; settings: route intraperitoneal
[10] = tested on: HEp-2; test: Potency index, ratio of ED50 for MTX to ED50 for compound against human Hep2 cells; format: functional
[11] = tested on: L1210; test: Antitumor activity against mouse L1210 cells […] in mouse assessed as increase in life span at 20 mg/kg, ip qd from day 1 to day 9 relative to control; format: functional; settings: route intraperitoneal
[12] = tested on: L1210; test: Antitumor activity against mouse L1210 cells […] in mouse assessed as increase in life span at 25 mg/kg, ip qd from day 1 to day 9 relative to control; format: functional; settings: route intraperitoneal
[13] = tested on: L1210; test: Antitumor activity against mouse L1210 cells […] in mouse assessed as increase in life span at 200 mg/kg, ip qd from day 1 to day 9 relative to control; format: functional; settings: route intraperitoneal
[14] = tested on: L1210; test: Antitumor activity against mouse L1210 cells […] in mouse assessed as increase in life span at 0.67 mg/kg, ip qd from day 1 to day 9 relative to control; format: functional; settings: route intraperitoneal
[15] = tested on: L1210; test: Antitumor activity against mouse L1210 cells […] in mouse assessed as increase in life span at 1.5 mg/kg, ip qd from day 1 to day 9 relative to control; format: functional; settings: route intraperitoneal
[16] = tested on: L1210; test: Antitumor activity against mouse L1210 cells […] in mouse assessed as increase in life span at 1.3 mg/kg, ip qd from day 1 to day 9 relative to control; format: functional; settings: route intraperitoneal
[17] = tested on: L1210; test: Antitumor activity against mouse L1210 cells […] in mouse assessed as increase in life span at 10 mg/kg, ip qd from day 1 to day 9 relative to control; format: functional; settings: route intraperitoneal
[18] = tested on: L1210; test: Antitumor activity against mouse L1210 cells […] in mouse assessed as increase in life span at 50 mg/kg, ip qd from day 1 to day 9 relative to control; format: functional; settings: route intraperitoneal
[19] = tested on: L1210; test: Antitumor activity against mouse L1210 cells […] in mouse assessed as increase in life span at 0.44 mg/kg, ip qd from day 1 to day 9 relative to control; format: functional; settings: route intraperitoneal

## CN(Cc1cnc2nc(N)c(Br)c(N)c2n1)c1ccc(C(=O)N[C@@H](CCC(=O)O)C(=O)O)cc1
[1]
  IC50: 2500 nM
[2]
  EC50: 76 µg/mL (≈ 143 µM)
[3]
  ILS at 200 mg/kg: 1%
[4]
  pKa: 5.1
[5]
  Ratio: 190
[6]
  Ratio ED50: 19000

## Nc1nc(N)c2nc(CNc3ccc(CC(=O)N[C@@H](CCC(=O)O)C(=O)O)cc3)cnc2n1
[1]
  IC50: 380 nM
[2]
  EC50: 41 µg/mL (≈ 90.2 µM)
[7]
  ILS at 500 mg/kg: 35%
[5]
  Ratio: 15
[6]
  Ratio ED50: 10000

## CN(Cc1cnc2nc(N)cc(N)c2n1)c1ccc(C(=O)N[C@@H](CCC(=O)O)C(=O)O)cc1
[1]
  IC50: 63 nM
[8]
  EC50: 0.05 µg/mL (≈ 0.11 µM)
[9]
  ILS at 100 mg/kg: 64%
[5]
  Ratio: 4.8
[10]
  Ratio ED50: 13

## Nc1nc(N)c2nc(CNc3ccc(C(=O)NC(CCCCC(=O)O)C(=O)O)cc3)cnc2n1 (stereo unspecified)
[1]
  IC50: 13 nM
[2]
  EC50: 0.025 µg/mL (≈ 0.0534 µM)
[11]
  ILS at 20 mg/kg: 57%
[5]
  Ratio: 0.5
[6]
  Ratio ED50: 6.3

## Nc1nc(N)c2nc(CNc3ccc(CCC(=O)N[C@@H](CCC(=O)O)C(=O)O)cc3)cnc2n1
[1]
  IC50: 460 nM
[2]
  EC50: 37 µg/mL (≈ 79 µM)
[7]
  ILS at 500 mg/kg: 1%
[5]
  Ratio: 33
[6]
  Ratio ED50: 9300

## Nc1nc(N)c2nc(CNc3ccc(C(=O)NCCCC(=O)O)cc3)cnc2n1
[1]
  IC50: 380 nM
[2]
  EC50: > 100 µg/mL
[12]
  ILS at 25 mg/kg: 1%
[5]
  Ratio: 15

## Nc1nc(N)c2nc(CNc3ccc(C(=O)NCC(=O)O)cc3)cnc2n1
[1]
  IC50: 1100 nM
[2]
  EC50: 88 µg/mL (≈ 239 µM)
[5]
  Ratio: 42
[6]
  Ratio ED50: 22000

## CCN(Cc1cnc2nc(N)nc(N)c2n1)c1c(Cl)cc(C(=O)N[C@@H](CCC(=O)O)C(=O)O)cc1Cl
[1]
  IC50: 50 nM
[2]
  EC50: 0.022 µg/mL (≈ 0.0409 µM)
[9]
  ILS at 100 mg/kg: 70%
[5]
  Ratio: 1.1
[6]
  Ratio ED50: 5.5

## Nc1nc(N)c2nc(CNc3ccc(CC(=O)N[C@@H](CC(=O)O)C(=O)O)cc3)cnc2n1
[1]
  IC50: 1000 nM
[2]
  EC50: > 100 µg/mL
[13]
  ILS at 200 mg/kg: 29%
[5]
  Ratio: 38

## Nc1nc(N)c2nc(CNc3ccc(C(=O)N[C@@H](CCC(=O)O)C(=O)O)cc3)cnc2n1 [AMINOPTERIN]
[1]
  IC50: 26 nM
[2]
  EC50: 0.003 µg/mL (≈ 0.00681 µM)
[14]
  ILS at 0.67 mg/kg: 74%
[5]
  Ratio: 1
[6]
  Ratio ED50: 0.75

## CN(Cc1cnc2nc(N)nc(N)c2n1)c1ccc(C(=O)N[C@@H](CCC(=O)O)C(=O)O)cc1 [METHOTREXATE]
[1]
  IC50: 26 nM
[2]
  EC50: 0.004 µg/mL (≈ 0.0088 µM)
[15]
  ILS at 1.5 mg/kg: 72%

## CN(Cc1cnc2nc(N)c([N+](=O)[O-])c(N)c2n1)c1ccc(C(=O)N[C@@H](CCC(=O)O)C(=O)O)cc1
[1]
  IC50: 38000 nM
[2]
  EC50: > 100 µg/mL
[3]
  ILS at 200 mg/kg: 1%
[4]
  pKa: 4.3
[5]
  Ratio: 1400

## Nc1nc(N)c2nc(COc3ccc(C(=O)N[C@@H](CCC(=O)O)C(=O)O)cc3)cnc2n1
[1]
  IC50: 510 nM
[2]
  EC50: 3.5 µg/mL (≈ 7.93 µM)
[16]
  ILS at 1.3 mg/kg: 32%
[5]
  Ratio: 20
[6]
  Ratio ED50: 875

## CCN(Cc1cnc2nc(N)nc(N)c2n1)c1ccc(C(=O)N[C@@H](CCC(=O)O)C(=O)O)cc1
[1]
  IC50: 45 nM
[2]
  EC50: 0.005 µg/mL (≈ 0.0107 µM)
[17]
  ILS at 10 mg/kg: 117%
[5]
  Ratio: 1
[6]
  Ratio ED50: 1.3

## Nc1nc(N)c2nc(CNc3ccc(S(=O)(=O)N[C@@H](CCC(=O)O)C(=O)O)cc3)cnc2n1
[1]
  IC50: 1100 nM
[2]
  EC50: 45 µg/mL (≈ 94.4 µM)
[9]
  ILS at 100 mg/kg: 27%
[5]
  Ratio: 39
[6]
  Ratio ED50: 11000

## CN(Cc1ccc(C(=O)N[C@@H](CCC(=O)O)C(=O)O)cc1)Cc1cnc2nc(N)nc(N)c2n1
[1]
  IC50: 750 nM
[2]
  EC50: 0.043 µg/mL (≈ 0.0918 µM)
[18]
  ILS at 50 mg/kg: 36%
[5]
  Ratio: 29
[6]
  Ratio ED50: 11

## Nc1nc(N)c2nc(CN(c3ccccc3)c3ccc(C(=O)N[C@@H](CCC(=O)O)C(=O)O)cc3)cnc2n1
[1]
  IC50: 280 nM
[2]
  EC50: 26 µg/mL (≈ 50.3 µM)
[5]
  Ratio: 11
[6]
  Ratio ED50: 6500

## CN(CCCCC(=O)N[C@@H](CCC(=O)O)C(=O)O)Cc1cnc2nc(N)nc(N)c2n1
[1]
  IC50: 20000 nM
[2]
  EC50: > 100 µg/mL
[5]
  Ratio: 770

## Nc1nc(N)c2nc(CN(Cc3ccccc3)c3ccc(C(=O)N[C@@H](CCC(=O)O)C(=O)O)cc3)cnc2n1
[1]
  IC50: 14000 nM
[2]
  EC50: > 100 µg/mL
[5]
  Ratio: 310

## Nc1nc(N)c2nc(CNc3ccc(C(=O)N[C@@H](CCC(=O)O)C(=O)O)nc3)cnc2n1
[1]
  IC50: 30 nM
[2]
  EC50: 0.006 µg/mL (≈ 0.0136 µM)
[19]
  ILS at 0.44 mg/kg: 69%
[5]
  Ratio: 1.2
[6]
  Ratio ED50: 1.5
